# Experimental data reported in patent US6653309B1, “Inhibitors of IMPDH enzyme technical field of the invention” (Vertex Pharmaceuticals Incorporated, priority 1999, dated 2003).
# Molecular target: IMPDH human type II (Homo sapiens, UniProt P12268)
# Test: IMPDH Activity Inhibition Assay
# Format: biochemical
# Conditions: spectrophotometric NADH formation at 340 nm, 37° C., tight-binding equation of Henderson
# Method: IMP dehydrogenase activity was assayed following an adaptation of the method first reported by Magasanik. [B. Magasanik et al., J. Biod. Chem., 226, p. 339 (1957), the disclosure of which is herein incorporated by reference]. Enzyme activity was measured spectrophotometrically, by monitoring the increase in absorbance at 340 nm due to the formation of NADH (ε340 is 6220 M^−1 cm^−1). The reaction mixture contained 0.1 M Tris pH 8.0, 0.1 M KCl, 3 mM EDTA, 2 mM DTT, […] and enzyme (IMPDH human type II) at a concentration of 15 to 50 nM. This solution is incubated at 37° C. for 10 minutes. The reaction is started by adding NAD to a final concentration of […] and the initial rate is measured by following the linear increase in absorbance at 340 nm for 10 minutes. For reading in a standard spectrophotometer (path length 1 cm) the final volume in the cuvette is 1.0 ml. The assay has also been adapted to a 96 well microtiter plate format; in this case the concentrations of all the reagents remain the same and the final volume is decreased to 200 μl.
# For the analysis of inhibitors, the compound in question is dissolved in DMSO to a final concentration of 20 mM and added to the initial assay mixture for preincubation with the enzyme at a final volume of 2-5% (v/v). The reaction is started by the addition of NAD, and the initial rates measured as above. Ki determinations are made by measuring the initial, velocities in the presence of varying amounts of inhibitor and fitting the data using the tight-binding equation of Henderson (Henderson, P. J. F. (1972) Biochem. J. 127, 321].
row,Ki,SMILES
1,10 to 20 µM,COc1ccccc1C(=O)Nc1ccccc1O [Compound 195]
2,10 to 20 µM,COc1ccccc1C(=O)Nc1ccccc1Oc1ccccc1 [Compound 196]
3,> 20 µM,COc1ccccc1NC(=O)c1ccc(C)cc1O [Compound 197]
4,> 20 µM,COc1ccc(C)cc1NC(=O)c1ccc(C)cc1O [Compound 198]
5,> 20 µM,Cc1ccc(C(=O)Nc2ccccc2O)c(O)c1 [Compound 199]
6,10 to 20 µM,Cc1ccc(C(=O)Nc2ccccc2Oc2ccccc2)c(O)c1 [Compound 200]
7,10 to 20 µM,COc1ccccc1NC(=O)c1cc(Br)ccc1O [Compound 201]
8,> 20 µM,COc1ccc(C)cc1NC(=O)c1cc(Br)ccc1O [Compound 202]
9,> 20 µM,O=C(Nc1ccccc1O)c1cc(Br)ccc1O [Compound 203]
10,> 20 µM,O=C(Nc1ccccc1Oc1ccccc1)c1cc(Br)ccc1O [Compound 204]
11,10 to 20 µM,O=[N+]([O-])c1cccc(S(=O)(=O)Nc2ccc(-c3cnco3)cc2)c1 [Compound 300]
12,10 to 20 µM,O=S(=O)(Nc1ccc(-c2cnco2)cc1)c1ccccc1 [Compound 301]
13,10 to 20 µM,COc1ccccc1NS(=O)(=O)c1ccc2ccccc2c1 [Compound 302]
14,> 20 µM,O=C(Nc1ccc(F)cc1)Sc1ccccc1O [Compound 303]
15,> 20 µM,O=C(Nc1cccnc1)c1cc2ccccc2cc1O [Compound 304]
16,< 10 µM,COc1cc(Cl)ccc1NC(=O)Sc1ccccc1O [Compound 305]
17,10 to 20 µM,COc1ccc(C)cc1NC(=O)Sc1ccccc1O [Compound 306]
18,10 to 20 µM,COc1ccc(OC)c(S(=O)(=O)Nc2cccc([N+](=O)[O-])c2)c1 [Compound 307]

row,Ki,SMILES
1,10 to 20 µM,COc1ccc(OC)c(S(=O)(=O)Nc2ccc([N+](=O)[O-])cc2)c1 [Compound 308]
2,10 to 20 µM,COc1ccc(OC)c(S(=O)(=O)Nc2cccc(C#N)c2)c1 [Compound 309]
3,10 to 20 µM,COc1ccc(OC)c(S(=O)(=O)Nc2ccc(C#N)cc2)c1 [Compound 310]
4,10 to 20 µM,COc1cccc(OC)c1S(=O)(=O)Nc1ccc(C(C)(C)C)cc1 [Compound 311]
5,10 to 20 µM,COc1ccc(OC)c(S(=O)(=O)Nc2ccccc2C#N)c1 [Compound 312]
6,10 to 20 µM,COc1ccc(OC)c(S(=O)(=O)Nc2cccc(Br)c2)c1 [Compound 313]
7,10 to 20 µM,COc1ccc(OC)c(S(=O)(=O)NCc2c(F)cccc2Cl)c1 [Compound 314]
8,10 to 20 µM,COc1ccc(OC)c(S(=O)(=O)Nc2ccccc2Cl)c1 [Compound 315]
9,10 to 20 µM,COc1ccc(OC)c(S(=O)(=O)Nc2ccc(-c3ncon3)cc2)c1 [Compound 316]
10,10 to 20 µM,COc1ccc(OC)c(S(=O)(=O)Nc2ccccc2[N+](=O)[O-])c1 [Compound 317]
11,10 to 20 µM,COc1ccc(Br)cc1S(=O)(=O)Oc1cc2ccccc2cc1N [Compound 318]
12,10 to 20 µM,COc1ccc(Br)cc1S(=O)(=O)Nc1cc2ccccc2cc1O [Compound 319]
13,10 to 20 µM,COc1ccc(OC)c(S(=O)(=O)Nc2cccc(Cl)c2)c1 [Compound 320]
14,10 to 20 µM,COc1ccccc1NS(=O)(=O)c1cc(Cl)cc(Cl)c1O [Compound 321]
15,10 to 20 µM,COc1ccccc1NS(=O)(=O)c1ccccc1O [Compound 322]
16,10 to 20 µM,COc1ccc(Br)cc1S(=O)(=O)Nc1ccccc1O [Compound 323]
17,10 to 20 µM,COc1ccccc1S(=O)(=O)Nc1ccccc1O [Compound 324]
18,< 10 µM,COc1cc(NC(=O)Cc2cccc(CNC(=O)O[C@H]3CCOC3)c2)ccc1-c1cnco1 [Compound 325]

row,SMILES,Ki
1,COc1cc(NC(=O)Oc2cccc(CNC(=O)O[C@H]3CCOC3)c2)ccc1-c1cnco1 [Compound 326],< 10 µM
